{"source": "PubChem BioAssay AID1745844", "about": "(Carcinogenic Potency Database (CPDB), 2022)", "system": "rodent lifetime carcinogenesis bioassay, tumor incidence TD50", "assay": "carcinogenic potency in animals, long-term in vivo studies, CPDB compilation (AID 1745844)", "note": "Activity calls are given as the source filed them. No rule for the calls is given here.", "data": [{"smiles": "C=CC(O)c1ccc2c(c1)OCO2", "note": "(stereo not given)", "values": [{"measurement": "TD50", "setting": "mouse, strain (B6C3F1 x B6C3 background, brachymorphic) inter se = B6C3F2 br, females, in feed, site: liver, lesion: hepatoma, dosed 52 weeks, study length 69 weeks", "value": 1530, "unit": "mg/kg/day"}, {"measurement": "TD50", "setting": "mouse, strain (B6C3F1 x B6C3 background, brachymorphic) inter se = B6C3F2 ph, females, in feed, site: liver, lesion: hepatoma, dosed 52 weeks, study length 69 weeks", "value": 53.3, "unit": "mg/kg/day"}, {"measurement": "TD50", "setting": "mouse, strain Charles River CD1, females, in feed, site: liver, lesion: hepatocellular carcinoma, dosed 51 weeks, study length 73 weeks", "value": 68, "unit": "mg/kg/day"}, {"measurement": "TD50", "setting": "mouse, strain Charles River CD1, females, in feed, site: liver, lesion: hepatoma, dosed 52 weeks, study length 69 weeks", "value": 49.1, "unit": "mg/kg/day"}, {"measurement": "TD50", "setting": "mouse, strain Charles River CD1, females, in feed, site: lung, lesion: adenoma, dosed 52 weeks, study length 69 weeks", "value": 3670, "unit": "mg/kg/day"}, {"measurement": "TD50", "setting": "mouse, strain Charles River CD1, females, in feed, site: subcutaneous tissue, lesion: angiosarcoma, dosed 51 weeks, study length 73 weeks", "value": 1550, "unit": "mg/kg/day"}, {"measurement": "TD50", "setting": "mouse, strain Charles River CD1, males, in feed, site: interscapulum, lesion: angiosarcoma, dosed 56 weeks, study length 69 weeks", "value": 429, "unit": "mg/kg/day"}, {"measurement": "TD50", "setting": "mouse, strain Charles River CD1, males, in feed, site: liver, lesion: carcinoma, dosed 56 weeks, study length 69 weeks", "value": 18900, "unit": "mg/kg/day"}, {"measurement": "TD50", "setting": "mouse, strain Charles River CD1, males, in feed, site: lung, lesion: adenoma, dosed 56 weeks, study length 69 weeks", "value": 5470, "unit": "mg/kg/day"}, {"measurement": "TD50", "setting": "rat, strain Charles River CD (Sprague-Dawley), males, in feed, site: forestomach, lesion: papilloma, dosed 36 weeks, study length 52 weeks", "value": 65.8, "unit": "mg/kg/day"}, {"measurement": "TD50", "setting": "rat, strain Charles River CD (Sprague-Dawley), males, in feed, site: forestomach, lesion: papilloma, dosed 43 weeks, study length 69 weeks", "value": 59.8, "unit": "mg/kg/day"}, {"measurement": "TD50", "setting": "rat, strain Charles River CD (Sprague-Dawley), males, in feed, site: liver, lesion: carcinoma, dosed 36 weeks, study length 52 weeks", "value": 12.1, "unit": "mg/kg/day"}, {"measurement": "TD50", "setting": "rat, strain Charles River CD (Sprague-Dawley), males, in feed, site: liver, lesion: carcinoma, dosed 43 weeks, study length 69 weeks", "value": 16.7, "unit": "mg/kg/day"}, {"measurement": "TD50", "setting": "rat, strain Charles River CD (Sprague-Dawley), males, in feed, site: liver, lesion: hepatocellular carcinoma, dosed 58 weeks, study length 95 weeks", "value": 47.8, "unit": "mg/kg/day"}]}, {"smiles": "COC(=O)NN", "values": [{"measurement": "carcinogen call", "setting": "rat, strain Wistar, females, in feed, site: any site (literature study), lesion: one or several types, types not named, dosed 104 weeks, study length 104 weeks", "value": "negative (inactive)"}, {"measurement": "carcinogen call", "setting": "rat, strain Wistar, males, in feed, site: any site (literature study), lesion: one or several types, types not named, dosed 104 weeks, study length 104 weeks", "value": "negative (inactive)"}]}, {"smiles": "Cc1c(COC(=O)[C@@H]2[C@H](/C=C(\\Cl)C(F)(F)F)C2(C)C)cccc1-c1ccccc1", "values": [{"measurement": "TD50", "setting": "mouse, strain Swiss Webster, males, in feed, site: urinary bladder, lesion: mesenchymal neoplasm, dosed 86 weeks, study length 86 weeks", "value": 286, "unit": "mg/kg/day"}]}, {"smiles": "O=NN(c1ccccc1)c1ccccc1", "values": [{"measurement": "TD50", "setting": "mouse, strain B6AKF1, females, oral dosing, site: any site (literature study), lesion: several types, types named in the paper, dosed 76 weeks, study length 76 weeks", "value": 3260, "unit": "mg/kg/day"}, {"measurement": "TD50", "setting": "mouse, strain B6AKF1, females, oral dosing, site: lung, lesion: adenoma, dosed 76 weeks, study length 76 weeks", "value": 1020, "unit": "mg/kg/day"}, {"measurement": "carcinogen call", "setting": "mouse, strain B6C3F1, females, in feed, site: any site (literature study), lesion: several types, types named in the paper, dosed 98 weeks, study length 101 weeks", "value": "negative (inactive)"}, {"measurement": "carcinogen call", "setting": "mouse, strain B6C3F1, males, in feed, site: any site (literature study), lesion: several types, types named in the paper, dosed 101 weeks, study length 101 weeks", "value": "negative (inactive)"}, {"measurement": "TD50", "setting": "mouse, strain B6C3F1, males, oral dosing, site: any site (literature study), lesion: several types, types named in the paper, dosed 76 weeks, study length 76 weeks", "value": 897, "unit": "mg/kg/day"}, {"measurement": "TD50", "setting": "mouse, strain B6C3F1, males, oral dosing, site: liver, lesion: hepatoma, dosed 76 weeks, study length 76 weeks", "value": 385, "unit": "mg/kg/day"}, {"measurement": "TD50", "setting": "mouse, strain B6C3F1, males, oral dosing, site: lung, lesion: adenoma, dosed 76 weeks, study length 76 weeks", "value": 9670, "unit": "mg/kg/day"}, {"measurement": "TD50", "setting": "rat, strain CB, males, i.p., site: liver, lesion: hepatoma, dosed 26 weeks, study length 100 weeks", "value": "18.9 mg/kg/day (inactive)"}, {"measurement": "TD50", "setting": "rat, strain Fischer 344, females, in feed, site: any site (literature study), lesion: several types, types named in the paper, dosed 100 weeks, study length 100 weeks", "value": 159, "unit": "mg/kg/day"}, {"measurement": "TD50", "setting": "rat, strain Fischer 344, females, in feed, site: urinary bladder, lesion: transitional-cell carcinoma, dosed 100 weeks, study length 100 weeks", "value": 116, "unit": "mg/kg/day"}, {"measurement": "TD50", "setting": "rat, strain Fischer 344, males, in feed, site: all sites, lesion: fibroma, dosed 100 weeks, study length 100 weeks", "value": 537, "unit": "mg/kg/day"}, {"measurement": "TD50", "setting": "rat, strain Fischer 344, males, in feed, site: any site (literature study), lesion: several types, types named in the paper, dosed 100 weeks, study length 100 weeks", "value": 136000, "unit": "mg/kg/day"}, {"measurement": "TD50", "setting": "rat, strain Fischer 344, males, in feed, site: liver, lesion: hepatocellular adenoma + hepatocellular carcinoma + neoplastic nodule, dosed 100 weeks, study length 100 weeks", "value": 5450, "unit": "mg/kg/day"}, {"measurement": "TD50", "setting": "rat, strain Fischer 344, males, in feed, site: urinary bladder, lesion: transitional-cell carcinoma, dosed 100 weeks, study length 100 weeks", "value": 299, "unit": "mg/kg/day"}]}, {"smiles": "CC(C)O", "values": [{"measurement": "carcinogen call", "setting": "mouse, strain Charles River CD1, females, inhaled, site: kidney, lesion: one or several types, types not named, dosed 54 weeks, study length 54 weeks", "value": "negative (inactive)"}, {"measurement": "carcinogen call", "setting": "mouse, strain Charles River CD1, females, inhaled, site: kidney, lesion: one or several types, types not named, dosed 78 weeks, study length 78 weeks", "value": "negative (inactive)"}, {"measurement": "carcinogen call", "setting": "mouse, strain Charles River CD1, males, inhaled, site: kidney, lesion: one or several types, types not named, dosed 54 weeks, study length 54 weeks", "value": "negative (inactive)"}, {"measurement": "carcinogen call", "setting": "mouse, strain Charles River CD1, males, inhaled, site: kidney, lesion: one or several types, types not named, dosed 78 weeks, study length 78 weeks", "value": "negative (inactive)"}, {"measurement": "carcinogen call", "setting": "rat, strain Fischer 344, females, inhaled, site: kidney, lesion: one or several types, types not named, dosed 72 weeks, study length 73 weeks", "value": "negative (inactive)"}, {"measurement": "carcinogen call", "setting": "rat, strain Fischer 344, females, inhaled, site: kidney, lesion: one or several types, types not named, dosed 104 weeks, study length 104 weeks", "value": "negative (inactive)"}, {"measurement": "carcinogen call", "setting": "rat, strain Fischer 344, males, inhaled, site: kidney, lesion: one or several types, types not named, dosed 72 weeks, study length 73 weeks", "value": "negative (inactive)"}, {"measurement": "carcinogen call", "setting": "rat, strain Fischer 344, males, inhaled, site: kidney, lesion: one or several types, types not named, dosed 102 weeks, study length 104 weeks", "value": "negative (inactive)"}, {"measurement": "TD50", "setting": "rat, strain Fischer 344, males, inhaled, site: testis, lesion: interstitial-cell adenoma, dosed 72 weeks, study length 73 weeks", "value": "456 mg/kg/day (inactive)"}, {"measurement": "TD50", "setting": "rat, strain Fischer 344, males, inhaled, site: testis, lesion: interstitial-cell adenoma, dosed 102 weeks, study length 104 weeks", "value": "46.4 mg/kg/day (inactive)"}]}, {"smiles": "C=Cc1cccc[n+]1[O-]", "values": [{"measurement": "TD50", "setting": "mouse, strain ICI, females, i.v., site: any site (literature study), lesion: benign tumor, dosed 75 weeks, study length 104 weeks", "value": "1690 mg/kg/day (inactive)"}, {"measurement": "carcinogen call", "setting": "mouse, strain ICI, females, i.v., site: any site (literature study), lesion: malignant tumor, dosed 75 weeks, study length 104 weeks", "value": "negative (inactive)"}, {"measurement": "carcinogen call", "setting": "mouse, strain ICI, females, i.v., site: lung, lesion: adenoma, dosed 75 weeks, study length 104 weeks", "value": "negative (inactive)"}, {"measurement": "carcinogen call", "setting": "rat, strain Wistar, females, i.v., site: any site (literature study), lesion: benign tumor, dosed 75 weeks, study length 104 weeks", "value": "negative (inactive)"}, {"measurement": "TD50", "setting": "rat, strain Wistar, females, i.v., site: any site (literature study), lesion: malignant tumor, dosed 75 weeks, study length 104 weeks", "value": "175 mg/kg/day (inactive)"}]}, {"smiles": "CN(N=O)c1ccncc1", "values": [{"measurement": "carcinogen call", "setting": "rat, strain BD VI, females, by gavage, site: any site (literature study), lesion: benign tumor, dosed 101 weeks, study length 101 weeks", "value": "negative (inactive)"}, {"measurement": "TD50", "setting": "rat, strain BD VI, females, by gavage, site: any site (literature study), lesion: malignant tumor, dosed 101 weeks, study length 101 weeks", "value": "26.8 mg/kg/day (inactive)"}, {"measurement": "carcinogen call", "setting": "rat, strain BD VI, females, by gavage, site: any site (literature study), lesion: several types, types named in the paper, dosed 101 weeks, study length 101 weeks", "value": "negative (inactive)"}, {"measurement": "carcinogen call", "setting": "rat, strain BD VI, females, by gavage, site: liver, lesion: several types, types named in the paper, dosed 101 weeks, study length 101 weeks", "value": "negative (inactive)"}]}]}
